# Assay results as given in patent US5710153A, “Tetrazole compound” (Ono Phramaceutical Co., Ltd., priority 1995, dated 1998).
# Molecular target: T1, human ICE (Homo sapiens, UniProt P29466)
# T1 sequence (P29466 120-297 limits assumed): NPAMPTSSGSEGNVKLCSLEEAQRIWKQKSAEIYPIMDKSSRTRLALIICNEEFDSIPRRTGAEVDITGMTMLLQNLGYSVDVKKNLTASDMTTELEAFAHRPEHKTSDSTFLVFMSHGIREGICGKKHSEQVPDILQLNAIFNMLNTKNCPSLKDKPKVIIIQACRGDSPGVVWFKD
# T1 sequence (P29466 317-404 limits assumed): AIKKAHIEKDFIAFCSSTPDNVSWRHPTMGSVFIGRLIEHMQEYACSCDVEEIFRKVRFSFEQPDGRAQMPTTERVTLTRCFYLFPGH
# Assay: Assay for IL-1β converting enzyme
# Assay type: biochemical
# Settings: human ICE solution, substrate Ac-Tyr-Val-Ala-Asp-MCA, 37° C., fluorescence
# Description: (1) Assay for IL-1β converting enzyme
# The reaction mixture contains, for example, 20 mM of HEPES-NaOH pH7.4, 10 mM of KOH, 1.5 mM of MgCl2, 0.1 mM of EDTA and 10% glycerol. Various concentrations of test compounds (50 μl), human ICE solution (50 μl) and various concentrations of substrate (Ac-Tyr-VaI-Ala-Asp-MCA) were mixed and incubated at 37° C. Fluorescence intensity was measured at […].
# In the aboved example method,
# HEPES is 4-(2-Hydroxyethyl)-1-piperazineethane-sulfonic acid,
# EDTA is Ethylenediamine tetraacetate, and
# Ac-Tyr-Val-Ala-Asp-MCA is Acetyl-L-tyrosyl-L-valyl-L-alanyl-L-asparaginic acid 4-methyl-coumarinyl-7-amide.
structure (smiles),measurement,value
"CC(C)[C@H](NC(=O)CCc1ccccc1)C(=O)N[C@@H](C)C(=O)NC(CC(=O)O)C(=O)Cn1nnc(-c2c(Cl)cccc2Cl)n1 (stereo partly drawn) [Example 2(1), N-((N-(3-phenylpropionyl)-L-valyl)-L-alanyl)-3-amino-4-oxo-5-(5-(2,6-dichlorophenyl)tetrazol-2-yl)pentanoic acid]",IC50,30 nM
